Legend:
[1] = target: T1, IRE1α* (Homo sapiens, UniProt O75460); test: In vitro RNase activity assay, XBP1-mini substrate cleavage, inhibitor titrations; format: biochemical; details: relative to apo IRE1α*
T1 construct: human IRE1α (residues 547-977, IRE1α*) was expressed in SF9 insect cells; His6 (N); made in house; host or cells: Sf9 insect cells (Bac-to-Bac baculovirus)
Description: In Vitro RNase Activity Assay Inhibitor Titrations
50 nM IRE1α* was incubated with inhibitor (initial concentration of 10 or 60 μM, three-fold serial dilutions) or DMSO for 30 min in assay buffer (20 mM Tris, 50 mM NaCl, 1 mM MgCl2, 2 mM DTT, 0.05% Triton X-100 (v/v), pH 7.5). Assays were initiated by adding 10 μL of XBP1-mini substrate (5′-Alex647-CAUGUCCGCAGCGCAUG-IowaBlack-FQ-3′ (SEQ ID NO: 1); IDT) to the wells at a final concentration of 200 nM and a final well volume of 30 μL. Fluorescence was detected on a Perkin Elmer Envision Microplate Reader at excitation and emission wavelengths of 650 nm and 665 nm. Dose-response curves were fit using “one-site fit log IC50” parameter using GraphPad Prism analysis software.

[2] = system: XBP1 mRNA splicing; test: XBP1 splicing in ER-stressed INS-1 cells; format: cell-based, rat; details: DTT, 20 μM compound
Description: RNA Isolation, Quantitative Real-Time PCR, and Primers
INS-1 or isogenic IRE1α-overexpressing INS-1 cells were plated onto Poly-D-Lysine coated tissue culture plate and grown for 48 hrs. Inhibitors or DMSO were added to the media and incubated for 1 hour at 37° C. with 5% CO2 prior to addition of ER stress agents or Dox as indicated. RNA was isolated from whole cells using either QIAGEN RNeasy Mini kits or Trizol (Invitrogen) and reverse transcribed as above to obtain total cDNA. Then, XBP-1 primers were used to amplify an XBP-1 amplicon spanning the 26 nt intron from the cDNA samples in a regular 3-step PCR. Thermal cycles were: 5 min at 95° C., 30 cycles of 30 s at 95° C., 30 s at 60° C., and 1 min at 72° C., followed by 72° C. for 15 min, and hold at 4° C. Primers used for XBP-1 mRNA splicing were as follows: sense primer XBP1.3 S (5′ […]-3′ (SEQ ID NO:2)) and antisense primer XBP1.2AS (5′-[…]-3′ (SEQ ID NO:3)). PCR fragments were then digested by PstI, resolved on 3% agarose gels, stained with EtBr and quantified by densitometry using ImageJ (NIH). For standard mRNA detection, generally […] total RNA was reverse transcribed using the QuantiTect Reverse Transcription Kit (QIAGEN). For qPCR, we used SYBR green (QIAGEN) and StepOnePlus Real-Time PCR System (Applied Biosystems). Thermal cycles were: 5 min at 95° C., 40 cycles of 15 sec at 95° C., 30 sec at 60° C. […]

T1 sequence (O75460 547-977): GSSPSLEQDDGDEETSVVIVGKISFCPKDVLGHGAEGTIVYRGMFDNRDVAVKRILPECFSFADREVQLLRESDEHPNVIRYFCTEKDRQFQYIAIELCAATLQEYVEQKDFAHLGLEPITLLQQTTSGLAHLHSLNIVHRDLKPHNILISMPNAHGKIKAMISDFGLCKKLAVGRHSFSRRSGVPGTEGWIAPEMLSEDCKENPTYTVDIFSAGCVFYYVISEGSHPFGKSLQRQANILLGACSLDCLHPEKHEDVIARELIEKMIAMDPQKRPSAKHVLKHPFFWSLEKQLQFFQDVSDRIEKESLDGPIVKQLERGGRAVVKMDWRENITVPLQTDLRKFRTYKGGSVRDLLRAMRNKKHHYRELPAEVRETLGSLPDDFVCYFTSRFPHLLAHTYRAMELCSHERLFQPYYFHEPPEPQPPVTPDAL

O=S(=O)(CC(F)(F)F)Nc1ccc(Oc2ncccc2-c2ccnc(N[C@H]3CCCNC3)n2)c2ccccc12 (stereo in doubt) [PAIR1, 2,2,2-trifluoro-N-(4-(3-(2-(piperidin-3-ylamino)pyrimidin-4-yl)pyridin-2-yloxy)naphthalen-1-yl)ethanesulfonamide]
RNase activity of IRE1α* (in words) [1]: partially inhibit | XBP1 mRNA splicing [2]: only weakly inhibited

— patent US11884649B2, “IRE1α inhibitors and uses thereof” (The Regents of the University of California, priority 2020, dated 2024)
